Values quoted from earlier work in patent US5973156A, “Piperidine and tetrahydropyridine derivatives” (Merck Sharp & Dome Ltd., priority 1995, dated 1999).

Tests used:
[1] = humans, therapeutic doses
[2] = tested on: human 5-HT1D.spsb.α and 5-HT1D.spsb.β receptor subtypes

In the case of `CNS(=O)(=O)Cc1ccc2[nH]cc(CCN(C)C)c2c1` [sumatriptan], the adverse cardiovascular events [1] is listed as “certain adverse cardiovascular events” and the “discrimination between the human 5-HT1D.spsb.α and 5-HT1D.spsb.β receptor subtypes” value [2] is listed as “barely discriminates”.
